Experiments:
IKKε = IKKε (Homo sapiens (Human), UniProt Q14164); assay: IKKε TR-FRET enzymatic assay; type: biochemical; settings: 2x Km ATP, geometric mean of at least four determinations, read-out: IKKe IC50
hJAK2 = hJAK2 (Homo sapiens (Human), UniProt O60674); assay: hJAK2 LANCE TR-FRET enzymatic assay; type: biochemical; settings: read-out: JAK2 IC50
TBK1 = TBK1 (Homo sapiens (Human), UniProt Q9UHD2); assay: TBK1 TR-FRET enzymatic assay; settings: read-out: TBK1 IC50, 2x Km ATP, geometric mean of at least four determinations
Sequence of TBK1 (Q9UHD2 whole entry): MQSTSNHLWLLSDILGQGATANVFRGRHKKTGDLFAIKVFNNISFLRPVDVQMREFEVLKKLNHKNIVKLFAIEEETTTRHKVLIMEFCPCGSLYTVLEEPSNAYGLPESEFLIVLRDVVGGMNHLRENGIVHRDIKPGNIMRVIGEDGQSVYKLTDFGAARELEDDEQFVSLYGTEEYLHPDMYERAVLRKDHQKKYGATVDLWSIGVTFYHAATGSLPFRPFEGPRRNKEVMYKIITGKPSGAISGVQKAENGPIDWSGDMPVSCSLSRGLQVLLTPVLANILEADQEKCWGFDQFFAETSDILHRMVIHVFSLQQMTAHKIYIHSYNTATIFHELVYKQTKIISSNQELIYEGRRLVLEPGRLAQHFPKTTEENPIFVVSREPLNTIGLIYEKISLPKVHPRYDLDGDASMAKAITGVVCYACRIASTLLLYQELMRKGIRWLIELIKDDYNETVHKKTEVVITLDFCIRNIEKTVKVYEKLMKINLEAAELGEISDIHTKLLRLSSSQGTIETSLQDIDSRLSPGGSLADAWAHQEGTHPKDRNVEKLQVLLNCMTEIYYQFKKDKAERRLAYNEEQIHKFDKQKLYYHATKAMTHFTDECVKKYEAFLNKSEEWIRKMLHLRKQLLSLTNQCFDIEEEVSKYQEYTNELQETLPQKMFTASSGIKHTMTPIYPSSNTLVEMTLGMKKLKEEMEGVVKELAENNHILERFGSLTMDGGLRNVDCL
Procedure: Enzymatic activity of IKKε and TBK1 was measured using a homogeneous time resolved fluorescence resonance energy transfer (TR-FRET) assay that monitors enzyme dependent phosphorylation of a biotinylated serine/threonine peptide substrate. […] TBK1 and IKKε were expressed and purified as full length recombinant proteins. Detection reagents for the assay were purchased from Cisbio. […] After an assay reaction time of 240 minutes at 25° C., reactions were terminated with EDTA.
All IC50 values represent geometric mean values of a minimum of four determinations.

Sequence of hJAK2 (O60674 whole entry): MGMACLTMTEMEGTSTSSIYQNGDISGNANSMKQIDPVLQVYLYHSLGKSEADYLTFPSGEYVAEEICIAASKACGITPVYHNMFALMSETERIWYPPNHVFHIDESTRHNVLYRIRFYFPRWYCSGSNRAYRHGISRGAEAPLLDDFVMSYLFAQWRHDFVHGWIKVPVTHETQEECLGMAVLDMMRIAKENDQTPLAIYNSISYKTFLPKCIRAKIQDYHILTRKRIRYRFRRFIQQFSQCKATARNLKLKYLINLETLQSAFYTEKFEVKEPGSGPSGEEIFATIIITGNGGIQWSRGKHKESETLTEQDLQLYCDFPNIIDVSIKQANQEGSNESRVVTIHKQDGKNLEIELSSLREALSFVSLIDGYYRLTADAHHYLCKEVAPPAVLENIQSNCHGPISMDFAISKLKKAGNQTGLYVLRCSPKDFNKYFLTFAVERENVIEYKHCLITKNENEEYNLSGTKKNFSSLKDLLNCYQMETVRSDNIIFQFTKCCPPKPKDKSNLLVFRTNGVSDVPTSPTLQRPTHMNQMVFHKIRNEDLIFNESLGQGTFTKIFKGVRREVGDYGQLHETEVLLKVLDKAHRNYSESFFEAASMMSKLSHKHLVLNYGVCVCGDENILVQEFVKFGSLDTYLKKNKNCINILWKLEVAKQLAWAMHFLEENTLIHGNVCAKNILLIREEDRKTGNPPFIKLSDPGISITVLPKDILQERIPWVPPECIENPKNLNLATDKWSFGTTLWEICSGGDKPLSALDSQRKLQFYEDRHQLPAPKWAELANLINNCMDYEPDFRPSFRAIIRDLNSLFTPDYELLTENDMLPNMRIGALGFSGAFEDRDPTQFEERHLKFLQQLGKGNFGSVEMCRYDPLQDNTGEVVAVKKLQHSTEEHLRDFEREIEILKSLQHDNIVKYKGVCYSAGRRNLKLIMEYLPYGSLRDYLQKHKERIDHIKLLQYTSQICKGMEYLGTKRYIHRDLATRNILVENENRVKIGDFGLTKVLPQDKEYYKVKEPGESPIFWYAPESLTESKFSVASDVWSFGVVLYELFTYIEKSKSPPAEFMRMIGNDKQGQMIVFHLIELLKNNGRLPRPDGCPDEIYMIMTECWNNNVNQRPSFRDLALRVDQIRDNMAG
Sequence of IKKε (Q14164 whole entry): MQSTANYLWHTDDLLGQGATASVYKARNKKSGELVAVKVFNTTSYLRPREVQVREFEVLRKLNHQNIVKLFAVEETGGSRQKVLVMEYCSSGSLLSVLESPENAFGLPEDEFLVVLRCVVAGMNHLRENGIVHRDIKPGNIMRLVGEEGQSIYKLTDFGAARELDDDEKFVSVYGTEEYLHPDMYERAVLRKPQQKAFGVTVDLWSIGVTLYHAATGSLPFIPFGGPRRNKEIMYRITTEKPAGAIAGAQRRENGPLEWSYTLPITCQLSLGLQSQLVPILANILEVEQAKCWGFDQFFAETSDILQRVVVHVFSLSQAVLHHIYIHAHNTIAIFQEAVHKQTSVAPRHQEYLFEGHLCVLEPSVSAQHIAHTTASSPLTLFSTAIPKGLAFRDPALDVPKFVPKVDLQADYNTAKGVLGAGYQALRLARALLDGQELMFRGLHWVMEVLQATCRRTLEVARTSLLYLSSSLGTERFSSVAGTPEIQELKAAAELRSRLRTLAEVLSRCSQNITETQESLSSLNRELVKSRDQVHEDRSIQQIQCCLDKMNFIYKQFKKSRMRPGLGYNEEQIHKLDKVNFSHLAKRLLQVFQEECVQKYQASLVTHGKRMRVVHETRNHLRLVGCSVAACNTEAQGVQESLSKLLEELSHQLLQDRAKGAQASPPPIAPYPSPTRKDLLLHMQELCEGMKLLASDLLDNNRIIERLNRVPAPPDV

Row | Compound | IC50 (IKKε) [nM] | IC50 (hJAK2) [nM] | IC50 (TBK1) [nM]
1 | 2-(((3R,4S)-1-((R)-4,4-difluoropyrrolidine-2-carbonyl)-3-fluoropiperidin-4-yl)oxy)-5-(4-((4-(4-(oxetan-3-yl)piperazin-1-yl)phenyl)amino)-1,3,5-triazin-2-yl)benzonitrile [Example 132] | 51 | 1000 | 25
2 | N#Cc1cc(-c2ncnc(Nc3cnn(C(F)F)c3)n2)ccc1O[C@H]1CCNC[C@H]1F [Example 453, 5-(4-((1-(difluoromethyl)-1H-pyrazol-4-yl)amino)-1,3,5-triazin-2-yl)-2-(((3R,4S)-3-fluoropiperidin-4-yl)oxy)benzonitrile] |  |  | 359
3 | 2-(((3R,4S)-3-fluoro-1-((S)-pyrrolidine-2-carbonyl)piperidin-4-yl)oxy)-5-(4-((4-(4-(oxetan-3-yl)piperazin-1-yl)phenyl)amino)-1,3,5-triazin-2-yl)benzonitrile [Example 133] | 1000 | 1000 | 
